The subject of data set [1] is Gastric Acid Secretion Induced by Histamine. The data set can be described thus: Inhibition effect on gastric acid secretion induced by histamine in pylorus ligated rat (subcutaneous). The following applies: Rattus norvegicus; 0.2 mg/kg SC; histamine 3 mg/kg SC; average of five runs; read-out: Secretion of Gastric Acid in Rat, Inhibition Rate (%). The format is in vivo, male Wistar rat. The procedure: (§1) A male Wistar rat having a body weight of about 160 g and which had not fed for 24 hours was anesthetized by an intraperitoneal dose of 1.2 g/kg of urethane. After ligating of pylorus and esophagus, the gaster anterior was incised and fitting with a double polyethylene cannula. The wall of the stomach was rinsed with 5 ml of saline at 30 minutes intervals, and the quantity of gastric acid contained in each rinsing solution was measured by titration.
The basal acid secretion was initially measured three times, and then 0.2 mg/kg of each of the compounds of this invention was administered subcutaneously and 3 mg/kg of histamine was administered subcutaneously after the lapse of an additional 30 minutes.
(§2) The quantity of gastric acid secreted after the operation was measured continuously for 3 hours. Within that measurement interval, three time points at which the increase in acid secretion reached a maximum level were selected, and the average quantity of gastric acid secreted at those time points was taken as the increase in acid secretion, which was compared with the increase in acid secretion of the control group to calculate the percent inhibition for secretion of gastric acid (Table 1). [formula] (The result was shown as the average value of five runs.)

Data set [2] has the same test system. The data set is described as follows: Inhibitory effect of intraduodenally administered compounds on gastric acid secretion induced by histamine in rat. The format is in vivo, male Wistar rat. Particulars: for ED50: Rattus norvegicus, intraduodenal, 30 minutes before histamine SC, read-out: Median effective dose (ED50) inhibiting Gastric Acid Section (95% Reliability Limit); for Efficacy Ratio relative to Cimetidine (Cimetidine = 1): rat, in vivo. The method, then:
The test was conducted by an improved method based on that reported by Watanabe et al., in "Pharmacometrics", Vol. 3, No. (1), pages 7 to 14 (1969).
as §1, §2

For the next data set, the target named is T1, Histamine H2 -Receptor (Cavia porcellus, UniProt P47747).
T1 construct: from tissue; host or cells: isolated right atrium of male Hartley guinea pig
T1 sequence (P47747 whole entry): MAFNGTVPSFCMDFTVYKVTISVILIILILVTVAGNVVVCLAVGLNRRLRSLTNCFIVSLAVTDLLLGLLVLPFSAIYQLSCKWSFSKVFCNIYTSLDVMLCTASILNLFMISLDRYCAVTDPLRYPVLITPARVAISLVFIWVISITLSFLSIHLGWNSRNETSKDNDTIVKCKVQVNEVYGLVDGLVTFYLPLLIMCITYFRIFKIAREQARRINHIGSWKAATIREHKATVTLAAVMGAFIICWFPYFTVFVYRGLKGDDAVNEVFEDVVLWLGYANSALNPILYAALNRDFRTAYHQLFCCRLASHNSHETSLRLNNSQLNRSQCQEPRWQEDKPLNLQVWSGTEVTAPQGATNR
The data set can be described thus: biochemical. More on the design: species or system male Hartley guinea pig. Particulars: negative logarithm of molar concentration; isolated guinea pig atrium; read-out: Antagonistic Action against Histamine H2 -Receptor (pA2) Determined by Using Atrium isolated from Guinea Pig (converted). The method, then:
A male Hartley guinea pig having a body weight of about 400 g was killed by cervical dislocation, and the atrium thereof was isolated and was suspended in an organ bath containing […] of a modified Ringer solution and subjected to a tension of 1 g. The number of heart beats under such condition was recorded using a polygraph.
Initially, from 1×10^-7 mol to 3×10^-4 mol of histamine was allowed to act accumulatively to depict the curve of the dosage-reaction relationship. Likewise, the curve of the dosage of histamine-reaction relationship was depicted in the presence of 5×10^-7 mol to 1×10^-6 mol of the test sample which was injected 3 minutes before. The negative logarithm (pA2) of the molar concentration of the test sample required for moving the curve obtained by single administration of histamine parallel to the right side by a two-times concentration was calculated.

Data set [3] can be described thus: Acute toxicity test on mice dosed orally. The format is in vivo. Particulars: mouse, in vivo, po. The procedure: (§3) Male ddy mice each having a body weight of about 22 g and which had not eaten for 8 hours were orally dosed with the test samples, and the general symptoms and fatalities were observed from the time immediately following the administration to 14 days after the administration.
(§4) The median lethal dose (LD50) was calculated in accordance with the Litchfield and Wilcoxon Method.

A further data set has as its system Mice. The data set can be described thus: Acute toxicity test on mice dosed orally. The following applies: orally, mice. It is filed as in vivo. The procedure: as §3, §4
Where [4] appears, read: P.O., 14 days observation, Litchfield and Wilcoxon Method, read-out: Median lethal dose (LD50).

Each structure is given as a SMILES string. Like-named read-outs stand apart in the source and are kept apart here.

The term ED50 denotes the dose that gives a 50% effect, or the effect in half of the subjects. By LD50 is commonly meant the dose at which mortality reaches 50%. Consider `Nc1c(NC/C=C\COc2cc(CN3CCCCC3)ccn2)c(=O)c1=O` [Ex. 1, 1-amino-2-[4-<4-(1-piperidinomethyl)pyridyl-2-oxy>-cis-2-butenylamino]-1-cyclobuten-3,4-dione], for which, in data set [1], the inhibition in vivo at 0.2 mg/kg turned out to be 54%. In addition, the ED50 in data set [2] (first series (Table 2-1)) was found to be 0.15 mg/kg. The Kb on Histamine H2 -Receptor is 339 nM. The LD50 at 336 h in data set [3] was greater than 1500 mg/kg.
`CNc1c(NC/C=C\COc2cc(CN3CCCCC3)ccn2)c(=O)c1=O` [Ex. 2, 1-methylamino-2-[4-<4-(1-piperidinomethyl)pyridyl-2-oxy>-cis-2-butenylamino]-1-cyclobuten-3,4-dione]: in data set [1], the inhibition in vivo at 0.2 mg/kg is 60%. For the same molecule, the ED50 in data set [2] (first series (Table 2-1)) was 0.27 mg/kg. Further, the “Efficacy Ratio relative to Cimetidine (Cimetidine = 1)” value (“Efficacy Ratio relative to Cimetidine” below) in data set [2] is given as 25.9. In addition, the Kb on Histamine H2 -Receptor is 174 nM. The 50% lethal dose (LD50) at 336 h in data set [3] (setting [4]) is greater than 1500 mg/kg.
Take `Nc1n[s+]([O-])nc1NC/C=C/COc1cc(CN2CCCCC2)ccn1` (stereo not drawn) [Ex. 9, 3-amino-4-[4-<4-(1-piperidinomethyl)pyridyl-2-oxy>-trans-2-butenylamino]-1,2,5-thiadiazole-1-oxide]: the inhibition in vivo at 0.2 mg/kg in data set [1] was 62%. Moreover, the ED50 in data set [2] (first series (Table 2-1)) worked out at 0.46 mg/kg. In addition, the “Efficacy Ratio relative to Cimetidine” value in data set [2] is given as 15.2. The Kb at Histamine H2 -Receptor was 339 nM. For the same molecule, in data set [3] (setting [4]), the LD50 at 336 h was greater than 1500 mg/kg.
Turning to `CN(C)Cc1ccnc(OC/C=C\CNc2n[s+]([O-])nc2N)c1` (stereo not drawn) [Ex. 11, 3-amino-4-<4-(4-dimethylaminomethylpyridyl-2-oxy)-cis-2-butenylamino>-1,2,5-thiadiazole-1-oxide], the inhibition in vivo at 0.2 mg/kg in data set [1] was found to be 101%. Moreover, the Kb at Histamine H2 -Receptor was 490 nM. In data set [3] (setting [4]), the LD50 at 336 h was greater than 1500 mg/kg.
For `CNc1n[s+]([O-])nc1NC/C=C\COc1cc(CN(C)C)ccn1` (stereo not drawn) [Ex. 12, 3-methylamino-4-<4-(4-dimethylaminomethylpyridyl-2-oxy)-cis-2-butenylamino>-1,2,5-thiadiazole-1-oxide], in that order: 91%, 263 nM and greater than 1500 mg/kg.
For `Cn1nc(N)nc1NC/C=C\COc1cc(CN2CCCCC2)ccn1` [Ex. 19, 3-amino-1-methyl-5-[4-<4-(1-piperidinomethyl)pyridyl-2-oxy>-cis-2-butenylamino]-1H-1,2,4-triazole], in that order: 3%, 759 nM and greater than 1500 mg/kg.
With `O=c1nc(NC/C=C\COc2cc(CN3CCCCC3)ccn2)[nH]cc1Cc1cccnc1` [Ex. 22, 2-[4-<4-(1-piperidinomethyl)pyridyl-2-oxy>-cis-2-butenylamino]-5-(3-pyridylmethyl)-1H-pyrimidin-4-one], the inhibition in vivo at 0.2 mg/kg in data set [1] was 40%. Moreover, the Kb at Histamine H2 -Receptor is 363 nM. Also, the LD50 at 336 h in data set [3] (setting [4]) turned out to be 1600 mg/kg. Also, the “acute toxicity / LD50 (in words)” value with Mice is “lower LD50 values than that of Cimetidine”.
Consider `Nc1n[nH]c(=O)nc1NC/C=C\COc1cc(CN2CCCCC2)ccn1` [Ex. 27, 6-amino-5-[4-<4-(1-piperidinomethyl)pyridyl-2-oxy>-cis-2-butenylamino]-1,2,4-triazin-3-one], for which the inhibition in vivo at 0.2 mg/kg in data set [1] stood at 88%. On Histamine H2 -Receptor, the Kb was 275 nM. For the same molecule, the LD50 at 336 h in data set [3] (setting [4]) is greater than 1500 mg/kg.
Turning to `Cn1nc(N)c(NC/C=C\COc2cc(CN3CCCCC3)ccn2)nc1=O` [Ex. 29, 6-amino-2-methyl-5-[4-<4-(1-piperidinomethyl)pyridyl-2-oxy>-cis-2-butenylamino]-1,2,4-triazin-3-one], the inhibition in vivo at 0.2 mg/kg in data set [1] amounted to 74%. Further, on Histamine H2 -Receptor, the Kb is 708 nM. For the same molecule, in data set [3] (setting [4]), the 50% lethal dose (LD50) at 336 h amounted to 1250 mg/kg. Also, the “acute toxicity / LD50 (in words)” value in the data set with Mice is “lower LD50 values than that of Cimetidine”.
`Nc1c(NC/C=C\COc2cccc(CN3CCCCC3)n2)c(=O)c1=O` [Ex. 32, 1-amino-2-[4-<6-(1-piperidinomethyl)pyridyl-2-oxy>-cis-2-butenylamino]-1-cyclobuten-3,4-dione]: in data set [1], the inhibition in vivo at 0.2 mg/kg worked out at 33%. In addition, in data set [2] (second series (Table 2-2)), the ED50 stood at 0.25 mg/kg. The “Efficacy Ratio relative to Cimetidine” value in data set [2] came to 32.8. In addition, on Histamine H2 -Receptor, the Kb was 490 nM.
In the same order, the values of `NC1=NS(=O)(=O)N=C1NC/C=C\COc1cccc(CN2CCCCC2)n1` [Ex. 36, 3-amino-4-[4-<6-(1-piperidinomethyl)pyridyl-2-oxy>-cis-2-butenylamino]-1,2,5-thiadiazole-1,1-dioxide] are 72%, 0.2 mg/kg, 41.0 and 263 nM.

For the origin of these results see US4710498A, “Pyridyloxy derivatives” (Ikeda Mohando Co., Ltd., priority 1984, dated 1987).
